Source: publication PMC9695356, “Development and Validation of an LC-MS/MS Method for Simultaneous Determination of Short Peptide-Based Drugs in Human Blood Plasma” (Molecules, 2022)

Tests used:
[1] = native hormone; cited from earlier work
Description: Gonadotropin-releasing hormone (GnRH) is a decapeptide released by hypothalamic neurons, which stimulates GnRH-mediated pituitary secretion of both luteinizing hormone (LH) and follicle-stimulating hormone (FSH). […] Goserelin, buserelin, and triptorelin are GnRH agonists, a relatively new class of drugs. The long-term administration of these agonists results in a significant decrease in estrogen and testosterone blood levels. ...

[2] = LC-MS/MS quantitation of GnRH analogs in blood plasma of prostate cancer patients (therapeutic monitoring); conditions: patients on goserelin therapy; conclusion from the obtained data
Description: (§1) A 1000 μL volume of blank plasma was placed in a 2 mL Eppendorf tube. Then, 10 μL of internal standard solution (50 μg/mL) was added to the tube, and the mixture was vortexed. An amount of 100 μL of the resulting sample was then transferred to another centrifuge tube, and 200 μL of methanol/deionized water/formic acid (60:40:0.08) mixture was added, followed by 500 μL of methanol. The sample was then centrifuged at 14,500 rpm for 15 min.
(§2) For the solid-phase extraction (SPE), the SPE cartridge was pre-treated with 1 mL methanol, followed by 1 mL of deionized water. The sample mixture was diluted with 500 μL of deionized water and gently loaded onto an SPE Oasis® HLB 1cc 30 mg cartridge (Waters Corporation, Milford, MA, USA). The SPE cartridge was washed with 1 mL deionized water, followed by 1 mL of methanol/deionized water (60:40) mixture. The sample was then eluted with 1 mL 0.1% formic acid (methanol solution) and evaporated to dryness (for 20 min) at 45 °C under a stream of nitrogen. The dry residue was then reconstituted with 100 μL of methanol/deionized water/formic acid (60:40:0.08) mixture.
(§3) The chromatographic separation was performed on a Jupiter® C18 column (5 μm, 50 × 4.6 mm 300 Å) (Phenomonex, Torrance, CA, USA). The mobile phase consisted of 0.1% v/v formic acid aqueous solution (solvent A) and 0.1% v/v formic acid in acetonitrile (solvent B). The mobile phase composition was changed gradually in a gradient elution (Table 5) with a constant flow rate of 1.2 mL/min. The temperature of the column oven was kept at 30 °C. After the sample preparation procedure, 30 μL of supernatant was injected into the LC-MS/MS system.
(§4) Detection was performed with triple quadruple tandem mass spectrometry in the positive ion mode (5 kW) using the MRM mode. Nitrogen was used as a nebulizer (3 L/h) and drying (20 L/h) gas. The desolvation temperature was set at 200 °C, and the source temperature was 400 °C.

clinical = conditions: male, human, in vivo, sc
Description: as §1, §2, §3, §4

Compound	Half-life [1]	Time at which plasma concentration starts to increase [2]	level at 8 day of a 28-day dosing cycle (clinical; 3.6 mg) [ng/mL]	level at 16 day of a 28-day dosing cycle (clinical; 3.6 mg) [ng/mL]	level at 10 day of an 84-day dosing cycle (clinical; 10.8 mg) [ng/mL]	level at 29 day of an 84-day dosing cycle (clinical; 10.8 mg) [ng/mL]	level at 59 day of an 84-day dosing cycle (clinical; 10.8 mg) [ng/mL]
Gonadotropin-releasing hormone [GnRH]	several minutes	–	–	–	–	–	–
CC(C)C[C@H](NC(=O)[C@@H](COC(C)(C)C)NC(=O)[C@H](Cc1ccc(O)cc1)NC(=O)[C@H](CO)NC(=O)[C@H](Cc1c[nH]c2ccccc12)NC(=O)[C@H](Cc1cnc[nH]1)NC(=O)[C@@H]1CCC(=O)N1)C(=O)N[C@@H](CCCNC(=N)N)C(=O)N1CCC[C@H]1C(=O)NNC(N)=O [Goserelin, Goserelin acetate]	–	second week	0.95	16.2	7.81	13.6	0.55
